Data set [1] relates to A2780-ADR cells. In words: MTT viability assay, reversal of MDR in P-gp overexpressing A2780-ADR cells. To be noted: for Reversal of MDR in A2780-ADR cells: 15 µM compound with or without 500 nM PTX, 48 h, MTT. The data set is classed as cell-based, human. The procedure: The chemotherapeutic sensitive DU145 human prostate cancer cells and the multidrug resistant sub-line, DU145-TXR, were generous gifts from Dr. Evan Keller (University of Michigan, Ann Arbor, MI). The MDR, P-gp overexpressing DU145-TXR cells were maintained under positive selection pressure by supplementing complete medium with 10 nM paclitaxel (Acros Organics, NJ). In addition to the aforementioned cell lines, the chemotherapeutic sensitive A2780 ovarian cancer cells (93112519, Sigma) and the multidrug resistant A2780-ADR (93112520, Sigma) were maintained in complete RPMI media consisting of RPMI-1640 with L-glutamine, 10% fetal bovine serum (FBS; Corning), 100 U/mL penicillin and 100 μg/mL streptomycin in a humidified incubator at 37 °C and 5% CO2. The MDR, P-gp overexpressing A2780-ADR cell line was maintained under positive selection pressure by supplementing complete medium with 100 nM doxorubicin (Fisher Scientific, NJ). The non-cancerous HFL1 (human lung fibroblast) cell line cell line was a generous gift from Dr. Robert Harrod (Southern Methodist University, Dallas, TX) and was maintained in complete F12K media consisting of F12K with 10% fetal bovine serum, 100 U/mL penicillin, and 100 µg/mL streptomycin (Gibco). Flasks and 96 well plates that were used with the non-cancerous line HFL1 were pre-treated with 0.1 mg/ml Collagen Type 1 (Gibco) and rinsed with PBS (Fisher).
Culture of the DU145, DU145-TXR, and HFL1 cell lines was performed as described in [8]. Culture of the A2780 and A2780-ADR cell lines was performed as described in [9]. MTT assays were performed as described in [8] with minor modifications. LC-MS/MS accumulation assays were performed as described in {Nanayakkara, 2018 #173} [9] with some modifications. […] The inhibitor concentration was lowered to 15 µM here, as the goal of the study was to identify compounds that were effective in reversing MDR at low concentrations, and to determine if the expanded virtual-assisted methods improved on our first-draft attempt. Compounds 56–98 were pre-screened using Resazurin cell viability assays: cells were incubated with 15 µM compound with or without 500 nM PTX for 48 hours, after which cell survival was assessed similar to [39]. Data represent the mean of two separate experiments, with n = 3 samples per experiment (n = 6 total) (S4 Table). The top performing compounds from this initial screen were re-tested with MTT viability assays against DU145-TXR cells, as described below.
MTT assays measure the reduction of yellow, water soluble 3-(4,5-dimethylthiazol-2-yl)-2,5-diphenyltetrazolium bromide (MTT) to blue, insoluble formazan crystals by cellular reductase processes in living cells. Cells were trypsinized from monolayers and seeded in complete medium in 96 well plates. Cancerous cell lines (DU145, DU145-TXR, A2780, A2780-ADR) were seeded at 3,000 cells per well in complete RPMI medium. The non-cancerous HFL1 line was seeded at 4,000 cells per well in complete F12K medium, in collagen-treated plates (Collagen Type 1, Gibco). Cells were incubated with experimental compounds for 48 hours at 37 °C and 5% CO2 in a humidified incubator. At 48 hours, MTT was added (20 µL/well of 5 mg/mL MTT in PBS) to each well. After incubation for 4 hours, the media was removed, and the formazan crystals were dissolved in 100 µL DMSO per well. Plates containing the semi-adherent A2780 or A2780-ADR lines were spun at 1400 rpm for 3 minutes prior to aspiration of media, and the addition of DMSO. Plates were shaken for 10 minutes at 500 rpm on an Orbital shaker (LabDoctor from MidSci, St Louis, MO). The absorbance was measured at 570 nm using a Bio-Tek Cytation 5 (Bio-Tek, Winooski, VT). The measured absorbance value was correlated with the number of metabolically active cells in that well, corrected for absorbance of media. […]

A short description of data set [2]: SWISS-ADME computational analysis of chemical properties. The conditions noted are these: predicted aqueous solubility compared to that observed in the laboratory. An excerpt: Identifying P-gp inhibitors that are not transport substrates remains inherently challenging. To that end, computational tools such as the SWISS-ADME server attempt to use a molecule’s unique chemical and structural characteristics to predict whether it is likely to be a P-gp transport substrate. Our LC-MS/MS assays allowed us to retroactively test the validity of predictions from SWISS-ADME. […] Alternative identifiers for the molecules identified in this study are shown in S7 Table.
S1 Table. Known P-gp Inhibitors and Predicted Chemical Properties. A non-exhaustive list of known P-gp inhibitors and their selected chemical properties ^[64, 65]. Clinical trial outcomes were adapted from ^[10, 11]. Compounds were evaluated using the SWISS-ADME server ^[54]. […] “Predicted P-gp Substrate” - predicted by SWISS-ADME to be a transport substrate of P-gp. “Known P-gp Substrate” – In addition to being P-gp inhibitors, these molecules are: known transport substrates of P-gp, known non-transport substrates of P-gp, unknown whether it is a transport substrate of P-gp ^[66-68]. If the molecule is designated in a specific generation of P-gp inhibitors - First Generation P-gp inhibitors, Second generation P-gp inhibitors, Third generation P-gp inhibitors.

Setting [3] is: A2780-ADR cells, 15 µM compound + 500 nM PTX, mean of 12 samples.
Setting [4] is: A2780-ADR cells, 15 µM compound alone, single samples (trials 1-3, samples 1-4).
[5] abbreviates: Homo sapiens, A2780 ADR, A2780-ADR cells, 15 µM compound alone, mean of 12 samples, read-out: Mean % Survival.
[6] abbreviates: Homo sapiens, A2780 ADR, A2780-ADR cells, 15 µM compound alone, single samples (trials 1-3, samples 1-4), read-out: % Survival (individual sample).
The mark [7] stands for this setting: A2780-ADR cells, 15 µM compound + 500 nM PTX, single samples (trials 1-3, samples 1-4).
[8] abbreviates: A2780-ADR cells, 1 µM compound + 500 nM PTX, mean of 12 samples.

Values joined by “and” are separate entries in the source; they are usually repeats but may differ in a detail not shown here. Equal entries are not always repeated. Where two headings read alike, the source gives them in different places.

Consider `Cn1cnnc1SCc1c(C(=O)O)nnn1-c1nonc1N` [Compound 59, Cn1cnnc1SCc1c(nnn1-c1nonc1N)C(O)=O], for which the “Mean % Survival” value in data set [1] (setting [3]) turned out to be 83.9%. Also, the “% Survival (individual sample)” value in data set [1] (setting [4]) is 98% and 96%. The results for the viability at 15 µM in data set [1] (setting [5]) and in data set [1] (setting [6]) were 93.1% and 95%, respectively. Moreover, in data set [2], the “Correct Water Solubility Prediction?” value is “Yes”.
Consider `Nc1nonc1-n1nnc(C(=O)N/N=C/c2c3ccccc3cc3ccccc23)c1COc1ccc(F)cc1` [Compound 60, Nc1nonc1-n1nnc(C(=O)N\N=C\c2c3ccccc3cc3ccccc23)c1COc1ccc(F)cc1], for which, in data set [2], the “Correct Water Solubility Prediction?” value is on record as “No”.
As to `CCN1CCN(Cc2c(C(=O)N/N=C3/C(=O)N(C)c4ccccc43)nnn2-c2nonc2N)CC1` [Compound 61, CCN1CCN(Cc2c(nnn2-c2nonc2N)C(=O)N\N=C2\C(=O)N(C)c3ccccc23)CC1], the “Correct Water Solubility Prediction?” value in data set [2] is reported as “No”.
Regarding `O=C(c1cc2ccccc2[nH]1)N1CCN(S(=O)(=O)c2cccc3nonc23)CC1` [Compound 66, O=C(N1CCN(CC1)S(=O)(=O)c1cccc2nonc12)c1cc2ccccc2[nH]1], the “Correct Water Solubility Prediction?” value in data set [2] was “Yes”.
For `O=C(c1nc(-c2ccc3cc[nH]c3c2)no1)N1CCN(c2nsc3ccccc23)CC1` [Compound 70, O=C(N1CCN(CC1)c1nsc2ccccc12)c1nc(no1)-c1ccc2cc[nH]c2c1], in data set [1], the “Reversal of MDR in A2780-ADR cells” value was “reversed MDR in A2780-ADR cells”. For the same compound, the “Mean % Survival” value in data set [1] (setting [3]) is listed as 62.6%. The “% Survival (individual sample)” value in data set [1] (setting [7]) was 62% and 59% and 61%; in data set [1] (setting [4]), 116%. Besides, in data set [1] (setting [5]), the viability at 15 µM was 114%. In addition, in data set [2], the “Correct Water Solubility Prediction?” value is given as “Yes”.
As for `COc1ccc(OC)c(NC(=O)c2nnn(-c3ccc4noc(-c5ccccc5)c4c3)c2C)c1` [Compound 71, COc1ccc(OC)c(NC(=O)c2nnn(c2C)-c2ccc3noc(-c4ccccc4)c3c2)c1], the “Correct Water Solubility Prediction?” value in data set [2] is “Yes”.
Regarding `Cc1onc(-c2ccccc2)c1-c1nnc(Cn2cnc3c(oc4ccccc43)c2=O)o1` [Compound 78, Cc1onc(c1-c1nnc(Cn2cnc3c4ccccc4oc3c2=O)o1)-c1ccccc1], the “Reversal of MDR in A2780-ADR cells” value in data set [1] is listed as “reversed MDR in A2780-ADR cells”. In addition, in data set [1] (setting [3]), the “Mean % Survival” value is on record as 41.5%. Further, the “% Survival (individual sample)” value was 48% and 26% in data set [1] (setting [7]); 81% and 88% in data set [1] (setting [4]). Also, the viability at 15 µM in data set [1] (setting [5]) was 82.7%. Moreover, in data set [2], the “Correct Water Solubility Prediction?” value is recorded as “Yes”.
As for `NS(=O)(=O)c1cccc(NC(=O)CSc2nnnn2C2CC2)c1` [Compound 89, NS(=O)(=O)c1cccc(NC(=O)CSc2nnnn2C2CC2)c1], the “Mean % Survival” value in data set [1] (setting [3]) is given as 74.6%. The “% Survival (individual sample)” value was 54% in data set [1] (setting [7]); 90% and 86% in data set [1] (setting [4]). Moreover, the figures for the viability at 15 µM in data set [1] (setting [5]) and in data set [1] (setting [6]) were 89.9% and 91%, respectively. Besides, in data set [2], the “Correct Water Solubility Prediction?” value was “Yes”.
As to `O=S(=O)(CCSc1nnc(-c2ccccc2)c2ccccc12)c1ccccc1` [Compound 96, O=S(=O)(CCSc1nnc(-c2ccccc2)c2ccccc12)c1ccccc1], the “Reversal of MDR in A2780-ADR cells” value in data set [1] is “reversed MDR in A2780-ADR cells”. The “Mean % Survival” value in data set [1] (setting [3]) is on record as 68.8%. The figures for the “% Survival (individual sample)” value in data set [1] (setting [7]) and in data set [1] (setting [4]) were 58% and 97%, respectively. Further, the viability at 15 µM in data set [1] (setting [5]) stood at 105%. In data set [2], the “Correct Water Solubility Prediction?” value is given as “No”.
For the compound `O=S(=O)(Cc1nc2ccccc2n1CC(O)c1ccc(Cl)cc1)c1ccccc1` (stereo not drawn) [Compound 97, OC(Cn1c(CS(=O)(=O)c2ccccc2)nc2ccccc12)c1ccc(Cl)cc1], the “Reversal of MDR in A2780-ADR cells” value in data set [1] was “reversed MDR in A2780-ADR cells”. Moreover, the “Mean % Survival” value in data set [1] (setting [3]) is 44.3%. In data set [1] (setting [7]), the “% Survival (individual sample)” value was 47% and 29%. Moreover, in data set [1] (setting [5]), the viability at 15 µM came to 92.5%. The “Correct Water Solubility Prediction?” value in data set [2] is listed as “Yes”.
With `COc1cccc(N2CCN(c3ccc4nnc(CCC(=O)Nc5ccc(F)c(F)c5)n4n3)CC2)c1` [Compound 101, COc1cccc(c1)N1CCN(CC1)c1ccc2nnc(CCC(=O)Nc3ccc(F)c(F)c3)n2n1], in data set [1], the “Reversal of MDR in A2780-ADR cells” value is on record as “reversed MDR in A2780-ADR cells”. Further, the “Mean % Survival” value in data set [1] (setting [3]) was found to be 41.5%. The entries for the “% Survival (individual sample)” value in data set [1] (setting [7]) and in data set [1] (setting [4]) were 46% and 93%, respectively. In data set [1] (setting [5]), the viability at 15 µM amounted to 88%. Moreover, the “Correct Water Solubility Prediction?” value in data set [2] is recorded as “Yes”.
Consider `Cc1ccc(-c2noc(-c3cn(Cc4ccc(NS(=O)(=O)c5ccccc5F)cc4)cn3)n2)cc1` [Compound 103, Cc1ccc(cc1)-c1noc(n1)-c1cn(Cc2ccc(NS(=O)(=O)c3ccccc3F)cc2)cn1], for which the “Reversal of MDR in A2780-ADR cells” value in data set [1] was “reversed MDR in A2780-ADR cells”. Also, the “Mean % Survival” value in data set [1] (setting [3]) turned out to be 44.4%. Further, the “% Survival (individual sample)” value in data set [1] (setting [4]) is given as 69%. For the same compound, the values for the viability at 15 µM in data set [1] (setting [5]) and in data set [1] (setting [6]) were 70.4% and 67%, respectively. In addition, in data set [2], the “Correct Water Solubility Prediction?” value was “No”.
For `COc1ccc2c3c([nH]c2c1)[C@H](CC(C)C)N1C(=O)[C@H](CCC(=O)OC(C)(C)C)NC(=O)[C@@H]1C3` [Ko143, reference compound], the “Mean % Survival” value was determined as 77.3% in data set [1] (setting [8]) and 102.8% in data set [1] (A2780-ADR cells, 1 µM compound alone, mean of 12 samples). In addition, the “% Survival (individual sample)” value in data set [1] (A2780-ADR cells, 1 µM compound + 500 nM PTX, single samples (trials 1-3, samples 1-4)) was 70% and 74% and 82% and 83% and 73% and 76% and 85% and 71% and 75% and 84%; in data set [1] (A2780-ADR cells, 1 µM compound alone, single samples (trials 1-3, samples 1-4)), 103% and 101% and 106% and 119% and 127% and 112% and 96% and 91% and 87% and 92% and 99%.
Consider `COc1cc2c(cc1OC)CN(CCc1ccc(NC(=O)c3cc(OC)c(OC)cc3NC(=O)c3cnc4ccccc4c3)cc1)CC2` [Tariquidar, reference compound], for which the “Mean % Survival” value in data set [1] (setting [8]) worked out at 55.3%. Further, in data set [1] (A2780-ADR cells, 1 µM compound + 500 nM PTX, single samples (trials 1-3, samples 1-4), listed as TQR), the “% Survival (individual sample)” value was 58% and 59%. Further, the viability at 1 µM in data set [1] (Homo sapiens, A2780 ADR, A2780-ADR cells, 1 µM compound alone, mean of 12 samples, read-out: Mean % Survival) is 91%.

The values above are taken from paper PMC12349723, “Computationally accelerated identification of P-glycoprotein inhibitors” (PLOS One, 2025).
